According to patent US8143409B2, “Crystalline form of rabeprazole sodium” (Dipharma Francis S.R.L., priority 2006, dated 2012):

Key:
[1] = isomorphic forms of EP 1674463; makes handling and storing easy; cited from earlier work
[2] = Thermodynamic stability by comparing DSC thermograms; type: physicochemical; details: compared with known hydrate forms α and β, by comparing the respective DSC thermograms
Method: DSC thermograms were recorded with a Mettler-Toledo differential scansion calorimeter DSC 822, under the following operative conditions: aluminium capsules, 30-400° C. range with increase of 10° C./min, under nitrogen as purging gas (80 ml/min).

[3] = Stability of the crystalline hydrate form at room temperature; type: physicochemical; details: compared with hydrated crystalline forms alpha and beta

Structure (SMILES)	hygroscopicity [1]	thermodynamic stability [2]	stability [3]
COCCCOc1ccnc(C[S+]([O-])c2nc3ccccc3[n-]2)c1C.[Na+] (stereo not drawn) [alpha]	low hygroscopicity	–	–
COCCCOc1ccnc(C[S+]([O-])c2nc3ccccc3[n-]2)c1C.[Na+] (stereo not drawn) [Form γ, 2-[[[4-(3-methoxypropoxy)-3-methyl-2-pyridinyl]-methyl]sulfinyl]-1H-benzylimidazole sodium salt]	–	thermodynamically more stable than the known hydrate forms α and β	more stable at room temperature
